Experiments:
Assay type in all cases: functional
[1] = system: Avena sterilis; assay: Herbicidal activity against Avena sterilis accession P22 assessed as weed survival at 32 times field recommended herbicide dose
[2] = system: Avena sterilis; assay: Herbicidal activity against Avena sterilis accession P13S assessed as weed survival at 1/16 times field recommended herbicide dose
[3] = system: Avena sterilis; assay: Herbicidal activity against Avena sterilis accession P16 assessed as weed survival at 4 times field recommended herbicide dose
[4] = system: Avena sterilis; assay: Herbicidal activity against Avena sterilis accession P18 assessed as weed survival at 4 times field recommended herbicide dose
[5] = system: Avena sterilis; assay: Herbicidal activity against Avena sterilis accession P06S assessed as weed survival at 1/8 times field recommended herbicide dose
[6] = system: Avena sterilis; assay: Herbicidal activity against Avena sterilis accession P22 assessed as induction of weed mortality
[7] = system: Avena sterilis; assay: Herbicidal activity against Avena sterilis accession P11 assessed as induction of weed mortality
[8] = system: Avena sterilis; assay: Herbicidal activity against Avena sterilis accession P08 assessed as weed survival at 32 times field recommended herbicide dose
[9] = system: Avena sterilis; assay: Herbicidal activity against Avena sterilis accession P17 assessed as weed survival at 8 times field recommended herbicide dose
[10] = system: Avena sterilis; assay: Herbicidal activity against Avena sterilis accession P08 assessed as induction of weed mortality
[11] = system: Avena sterilis; assay: Herbicidal activity against Avena sterilis accession P21S assessed as weed survival at 1/8 times field recommended herbicide dose
[12] = system: Avena sterilis; assay: Herbicidal activity against Avena sterilis accession P21S assessed as induction of weed mortality
[13] = system: Avena sterilis; assay: Herbicidal activity against Avena sterilis accession P21S assessed as weed survival at 1/4 times field recommended herbicide dose
[14] = system: Avena sterilis; assay: Herbicidal activity against Avena sterilis accession P18 assessed as weed survival at 1 times field recommended herbicide dose
[15] = system: Avena sterilis; assay: Herbicidal activity against Avena sterilis accession P11 assessed as weed survival at 8 times field recommended herbicide dose
[16] = system: Avena sterilis; assay: Herbicidal activity against Avena sterilis accession P03 assessed as weed survival at 16 times field recommended herbicide dose
[17] = system: Avena sterilis; assay: Herbicidal activity against Avena sterilis accession P02 assessed as weed survival at 8 times field recommended herbicide dose
[18] = system: Avena sterilis; assay: Herbicidal activity against Avena sterilis accession P02 assessed as weed survival at 1 times field recommended herbicide dose
[19] = system: Avena sterilis; assay: Herbicidal activity against Avena sterilis accession P22 assessed as weed survival at 16 times field recommended herbicide dose
[20] = system: Avena sterilis; assay: Herbicidal activity against Avena sterilis accession P17 assessed as weed survival at 16 times field recommended herbicide dose
[21] = system: Avena sterilis; assay: Herbicidal activity against Avena sterilis accession P01 assessed as weed survival at 1 times field recommended herbicide dose
[22] = system: Avena sterilis; assay: Herbicidal activity against Avena sterilis accession P01 assessed as induction of weed mortality
[23] = system: Avena sterilis; assay: Herbicidal activity against Avena sterilis accession P08 assessed as weed survival at 16 times field recommended herbicide dose
[24] = system: Avena sterilis; assay: Herbicidal activity against Avena sterilis accession P19S assessed as induction of weed mortality
[25] = system: Avena sterilis; assay: Herbicidal activity against Avena sterilis accession P03 assessed as weed survival at 32 times field recommended herbicide dose
[26] = system: Avena sterilis; assay: Herbicidal activity against Avena sterilis accession P16 assessed as weed survival at 8 times field recommended herbicide dose
[27] = system: Avena sterilis; assay: Herbicidal activity against Avena sterilis accession P05 assessed as weed survival at 16 times field recommended herbicide dose
[28] = system: Avena sterilis; assay: Herbicidal activity against Avena sterilis accession P18 assessed as weed survival at 16 times field recommended herbicide dose
[29] = system: Avena sterilis; assay: Herbicidal activity against Avena sterilis accession P13S assessed as induction of weed mortality
[30] = system: Avena sterilis; assay: Herbicidal activity against Avena sterilis accession P16 assessed as weed survival at 32 times field recommended herbicide dose
[31] = system: Avena sterilis; assay: Herbicidal activity against Avena sterilis accession P17 assessed as weed survival at 4 times field recommended herbicide dose
[32] = system: Avena sterilis; assay: Herbicidal activity against Avena sterilis accession P22 assessed as weed survival at 1 times field recommended herbicide dose
[33] = system: Avena sterilis; assay: Herbicidal activity against Avena sterilis accession P11 assessed as weed survival at 16 times field recommended herbicide dose
[34] = system: Avena sterilis; assay: Herbicidal activity against Avena sterilis accession P18 assessed as weed survival at 32 times field recommended herbicide dose
[35] = system: Avena sterilis; assay: Herbicidal activity against Avena sterilis accession P15 assessed as weed survival at 8 times field recommended herbicide dose
[36] = system: Avena sterilis; assay: Herbicidal activity against Avena sterilis accession P11 assessed as weed survival at 4 times field recommended herbicide dose
[37] = system: Avena sterilis; assay: Herbicidal activity against Avena sterilis accession P07 assessed as weed survival at 16 times field recommended herbicide dose
[38] = system: Avena sterilis; assay: Herbicidal activity against Avena sterilis accession P17 assessed as weed survival at 1 times field recommended herbicide dose
[39] = system: Avena sterilis; assay: Herbicidal activity against Avena sterilis accession P19S assessed as weed survival at 1/8 times field recommended herbicide dose
[40] = system: Avena sterilis; assay: Herbicidal activity against Avena sterilis accession P14 assessed as weed survival at 1 times field recommended herbicide dose
[41] = system: Avena sterilis; assay: Herbicidal activity against Avena sterilis accession P15 assessed as weed survival at 1 times field recommended herbicide dose
[42] = system: Avena sterilis; assay: Herbicidal activity against Avena sterilis accession P15 assessed as weed survival at 4 times field recommended herbicide dose
[43] = system: Avena sterilis; assay: Herbicidal activity against Avena sterilis accession P20 assessed as weed survival at 4 times field recommended herbicide dose
[44] = system: Avena sterilis; assay: Herbicidal activity against Avena sterilis accession P10S assessed as weed survival at 1/8 times field recommended herbicide dose
[45] = system: Avena sterilis; assay: Herbicidal activity against Avena sterilis accession P09 assessed as weed survival at 4 times field recommended herbicide dose
[46] = system: Avena sterilis; assay: Herbicidal activity against Avena sterilis accession P06S assessed as weed survival at 1/32 times field recommended herbicide dose
[47] = system: Avena sterilis; assay: Herbicidal activity against Avena sterilis accession P02 assessed as weed survival at 4 times field recommended herbicide dose
[48] = system: Avena sterilis; assay: Herbicidal activity against Avena sterilis accession P01 assessed as weed survival at 16 times field recommended herbicide dose
[49] = system: Avena sterilis; assay: Herbicidal activity against Avena sterilis accession P21S assessed as weed survival at 1/32 times field recommended herbicide dose
[50] = system: Avena sterilis; assay: Herbicidal activity against Avena sterilis accession P20 assessed as weed survival at 32 times field recommended herbicide dose
[51] = system: Avena sterilis; assay: Herbicidal activity against Avena sterilis accession P06S assessed as weed survival at 1 times field recommended herbicide dose
[52] = system: Avena sterilis; assay: Herbicidal activity against Avena sterilis accession P04 assessed as induction of weed mortality
[53] = system: Avena sterilis; assay: Herbicidal activity against Avena sterilis accession P01 assessed as weed survival at 32 times field recommended herbicide dose
[54] = system: Avena sterilis; assay: Herbicidal activity against Avena sterilis accession P11 assessed as weed survival at 32 times field recommended herbicide dose
[55] = system: Avena sterilis; assay: Herbicidal activity against Avena sterilis accession P11 assessed as weed survival at 1 times field recommended herbicide dose
[56] = system: Avena sterilis; assay: Herbicidal activity against Avena sterilis accession P05 assessed as induction of weed mortality
[57] = system: Avena sterilis; assay: Herbicidal activity against Avena sterilis accession P08 assessed as weed survival at 8 times field recommended herbicide dose
[58] = system: Avena sterilis; assay: Herbicidal activity against Avena sterilis accession P02 assessed as weed survival at 16 times field recommended herbicide dose

COCc1cnc(C2=NC(C)(C(C)C)C(=O)N2)c(C(=O)O)c1 (stereo unspecified) [IMAZAMOX]
Survival [1]: 0% | Survival [2]: 80% | Survival [3]: 0% | Survival [4]: 0% | Survival [5]: 57% | GR50 [6]: <50 gAi/ha | GR50 [7]: <50 gAi/ha | Survival [8]: 0% | Survival [9]: 0% | GR50 [10]: <50 gAi/ha | Survival [11]: 87% | GR50 [12]: 14 gAi/ha | Survival [13]: 60% | Survival [14]: 0% | Survival [15]: 0% | Survival [16]: 0% | Survival [17]: 0% | Survival [18]: 3% | Survival [19]: 0% | Survival [20]: 0% | Survival [21]: 0% | GR50 [22]: <50 gAi/ha | Survival [23]: 0% | GR50 [24]: 14 gAi/ha | Survival [25]: 0% | Survival [26]: 0% | Survival [27]: 0% | Survival [28]: 0% | GR50 [29]: 8 gAi/ha | Survival [30]: 0% | Survival [31]: 0% | Survival [32]: 0% | Survival [33]: 0% | Survival [34]: 0% | Survival [35]: 0% | Survival [36]: 0% | Survival [37]: 0% | Survival [38]: 3% | Survival [39]: 80% | Survival [40]: 0% | Survival [41]: 0% | Survival [42]: 0% | Survival [43]: 0% | Survival [44]: 60% | Survival [45]: 0% | Survival [46]: 97% | Survival [47]: 0% | Survival [48]: 0% | Survival [49]: 100% | Survival [50]: 0% | Survival [51]: 0% | GR50 [52]: <50 gAi/ha | Survival [53]: 0% | Survival [54]: 0% | Survival [55]: 0% | GR50 [56]: <50 gAi/ha | Survival [57]: 0% | Survival [58]: 0%

CCc1cc(C)cc(CC)c1-c1c(OC(=O)C(C)(C)C)n2n(c1=O)CCOCC2 [PINOXADEN]
Survival [1]: 0% | Survival [2]: 97% | Survival [3]: 0% | Survival [4]: 0% | Survival [5]: 20% | GR50 [6]: <40 gAi/ha | GR50 [7]: <40 gAi/ha | Survival [8]: 0% | Survival [9]: 0% | GR50 [10]: <40 gAi/ha | Survival [11]: 57% | GR50 [12]: 5.8 gAi/ha | Survival [13]: 20% | Survival [14]: 0% | Survival [15]: 0% | Survival [16]: 0% | Survival [17]: 0% | Survival [18]: 20% | Survival [19]: 0% | Survival [20]: 0% | Survival [21]: 20% | GR50 [22]: <40 gAi/ha | Survival [23]: 0% | GR50 [24]: 6.6 gAi/ha | Survival [25]: 0% | Survival [26]: 0% | Survival [27]: 0% | Survival [28]: 0% | GR50 [29]: 4.1 gAi/ha | Survival [30]: 0% | Survival [31]: 0% | Survival [32]: 20% | Survival [33]: 0% | Survival [34]: 0% | Survival [35]: 0% | Survival [36]: 0% | Survival [37]: 0% | Survival [38]: 0% | Survival [39]: 50% | Survival [40]: 0% | Survival [41]: 20% | Survival [42]: 0% | Survival [43]: 0% | Survival [44]: 20% | Survival [45]: 0% | Survival [46]: 97% | Survival [47]: 0% | Survival [48]: 0% | Survival [49]: 100% | Survival [50]: 0% | Survival [51]: 0% | GR50 [52]: 74 gAi/ha | Survival [53]: 0% | Survival [54]: 0% | Survival [55]: 0% | GR50 [56]: <40 gAi/ha | Survival [57]: 0% | Survival [58]: 0%

Source: ChEMBL document CHEMBL3046559, “Sterile oat (Avena sterilis L.) cross-resistance profile to ACCase-inhibiting herbicides in Greece” (2012)
